Assay results taken from US20250040543A1, “Preservative Composition” (ARXADA AG, priority 2021, published 2025).

Experiments:
Assay in all cases: MIC and Synergy Index (Kull) of two-component compositions
Type in all cases: cell-based
[1] = system: Staphylococcus aureus; settings: Staphylococcus aureus, butyl levulinate alone, or its concentration in the mixture with Sodium benzoate; read-out: MIC (ppm) to inhibit growth: Butyl levulinate
Experimental: (§1) A wide range of concentrations were tested against Pseudomonas aeruginosa, Staphylococcus aureus, Escherichia coli, and Candda albicans.
(§2) The lowest concentration of each mixture or single compound which prevents an observable level of growth was determined to be the minimum inhibitory concentration (MIC) value.
(§3) Serial dilutions of each mixture or single compound were prepared. Micro-organisms were inoculated into media: Nutrient Broth (bacteria) or Malt Extract Broth (yeast). The final concentrations of micro-organisms in media was approximately 10^5-6 CFU/ml. The inoculated media was introduced to each of the serial dilutions at a 1:1 ratio, and incubated at 30±1° C. for 24-48 hours.
(§4) The MICs for each mixture was compared with the MIC of each single compound alone.
(§5) Synergy was determined using the Kull equation (F. C. Kull et. al., “Mixtures of Quaternary Ammonium Compounds and Long-chain Fatty Acids as Antifungal Agents”, Appl Microbiol. 1961 November; 9(6): 538-541), which calculates a Synergy Index (SI) according the following equation:
(§6) [formula] • wherein • QA=concentration of compound A in ppm, acting alone produced an end point, • Qa=concentration of compound A in ppm, in the mixture, which produced an end point, • QB=concentration of compound B in ppm, acting alone produced an end point, and • Qb=concentration of compound B in ppm, in the mixture, which produced an end point;
(§7) In this study the end point is measured by the MIC.

[2] = system: Pseudomonas aeruginosa
Experimental: as §1, §2, §3, §4, §5, §6, §7

[3] = system: Escherichia coli
Experimental: as §1, §2, §3, §4, §5, §6, §7

`CCCCOC(=O)CCC(C)=O` [Butyl Levulinate, butyl levulinate] was tested. Which MIC [1] did it give?
Its MIC is 25000 µg/mL.

What about the MIC ([2]; Pseudomonas aeruginosa, butyl levulinate alone, or its concentration in the mixture with Lactic Acid, read-out: MIC (ppm) to inhibit growth: Butyl levulinate) of the same molecule?
The MIC was 6250 µg/mL.

And the “MIC (ppm) to inhibit growth: Butyl levulinate” value (“MIC (ppm) to inhibit growth” for short) ([2]; butyl levulinate alone, or its concentration in the mixture with MGDA)?
Its value is 6250 ppm.

What about the “MIC (ppm) to inhibit growth” value ([2]; butyl levulinate alone, or its concentration in the mixture with Sodium pyrithione) of the same molecule?
The value was 6250 ppm.

And the MIC ([3]; Escherichia coli, butyl levulinate alone, or its concentration in the mixture with Sodium benzoate, read-out: MIC (ppm) to inhibit growth: Butyl levulinate)?
Its MIC is 3120 µg/mL.

What about the “MIC (ppm) to inhibit growth” value ([3]; butyl levulinate alone, or its concentration in the mixture with DHA) of the same molecule?
Its value is 3125 ppm.
